Patent publication EP0612730A1, “O-aryl ethers of morphinans” (F. HOFFMANN-LA ROCHE AG, priority 1993, dated 1994)
Structures can show the parent of a compound that is named as a salt.

What was measured:
[1] = test system: cell suspensions prepared from embryonic rat cortices; assay: Acute glutamate neurotoxicity in cortical cell cultures (lactate dehydrogenase release); format: cell-based; details: embryonic rat cortical cultures 8-12 days in vitro, glutamate for 5 to 30 min at room temperature, LDH in supernatant after overnight at 37°C
Experimental: 2. Acute glutamate neurotoxicity
Single cell suspensions were prepared from embryonic rat cortices by digestion with dispase (2.4 U/ml) and subsequent trituration with fire polished Pasteur pipettes. The cells were then plated on poly-D-lysine coated microtiter plates (96 well/plate, 10⁵ cells/well) in a total volume of 100 µl essential medium supplemented with 10% horse serum and penicillin/streptomycin . Five days later, non-neuronal cell division was halted by exposure to […] combined with a 50% exchange of culture medium. The cultures were used for neurotoxicity assays from 8-12 days in vitro. Acute glutamate toxicity was performed as described in J. Koh et al. in Neurosci. 8, 1988, 185-196, in […] of a control salt solution [CSS: 120 mM NaCl, 5.4 mM KCl, 0.8 mm MgCl₂, 1.8 mM CaCl₂, 25 mM Tris HCl (pH 7.4 at 25°C) and 15 mM glycose] with […] glutamate for 5 to 30 min at room temperature with or without addition of substances to be tested.After washing, the cultures were maintained in 100 µl CSS overnight at 37°C. For quantitation of neurodegeneration, lactate dehydrogenase was measured in the cell culture supernatant as described by J.G. Klingman et al. in Neurosci. Meth. 31, 1990, 47-51. […] From dose response curves, IC₅₀ values were calculated.

NMDA receptor = assay: NMDA-induced convulsions in mice (NMDA-induced anticonvulsant test); format: in vivo; details: NMDA 175 mg/kg i.p. 30 min after i.p. test compound (60 min after oral), percent protection = 100 (E-C)/(10-C), dose and route of test compound not given
Source text: As indicated above, the compounds of formula I are active as non-competitive NMDA receptor antagonists and are therefore, useful as neuroprotecting agents, for example, in the treatment of injury to central neurons associated with ischemia, hypoxia, hypoglycemia, epilepsy, Huntington's disease or Alzheimer's disease.
1. NMDA-Induced convulsions in mice
Male mice 45-54 days old and weighing 18-30 g are food-deprived for 24 hrs and then assigned in groups of 10 to various treatment conditions. In general, the method of Lehmann et al. described in J. Pharmacol. Exp. Ther. 240, 1987, 737-746, is used. Mice are administered a test compound intraperitoneally and are injected with NMDA (175 mg/kg i.p.) 30 minutes later. If any test compound is administered orally, the NMDA is injected 60 minutes later. NMDA is dissolved in 0.9% saline. Test compounds are likewise dissolved in 0.9% saline or, when necessary, suspended in 5% gum acacia. All injections are made in a volume of 0.2 ml/20 g body weight. […] Results are represented as the number of mice protected at each dose level of a test compound; this gives an indication of the degree of protection at each dose and indicates whether there was a dose level at which complete protection occurred. A formula is used which adjusts for the number of mice "protected" in the control group, since the dose of NMDA used induces convulsions in less than 100 percent of the mice in the control group. The formula used is: percent protection = 100 (E-C)/(10-C), where E is the number of mice protected at the dose of the test compound, C is the number of mice not convulsing in the vehicle control group, and 10 is the number of mice per group. A given dose level of a compound is regarded as being active if this percent protection score is equal to or greater than 50 percent.

**Q.** How did the IC50 [1] turn out when `CN1CC[C@@]23CCCC[C@@H]2[C@@H]1Cc1ccc(Oc2ncccc2N)cc13` [2 HCl] was run?
**A.** 14 µM

**Q.** Which IC50 [1] does the source give for `CN1CC[C@]23CCCC[C@H]2[C@H]1Cc1ccc(Oc2ccccn2)cc13` [Example 2, (+)-3-(2-pyridyloxy)-N-methyl-morphinan] here?
**A.** 4 µM

**Q.** `CC(C)(CO)N1CC[C@]23CCCC[C@H]2[C@H]1Cc1ccc(Oc2ccccn2)cc13` [Example 18, (+)-β,β-dimethyl-3-(2-pyridinyloxy)morphinan-17-ethanol] was tested. Which “% mice protected” value (NMDA receptor) did it give?
**A.** 50%

**Q.** What about the IC50 [1] of the same molecule?
**A.** 14 µM

**Q.** With `Cc1cccc(Oc2ccc3c(c2)[C@@]24CCCC[C@H]2[C@@H](C3)NCC4)n1` [Example 22, (+)-3-[6-methyl-(2-pyridinyl)oxy] morphinan] as the molecule, how does the IC50 [1] read?
**A.** 1 to 2 µM

**Q.** How did the “% mice protected” value (NMDA receptor) turn out when `CN1CC[C@@]23CCCC[C@@H]2[C@@H]1Cc1ccc(Oc2nccs2)cc13` [Fumarate (the 1st table, row 4)] was run?
**A.** 86%

**Q.** How did the “% mice protected” value (NMDA receptor) turn out when `CN1CC[C@@]23CCCC[C@@H]2[C@@H]1Cc1ccc(Oc2cccc(Br)n2)cc13` [Fumarate (the 1st table, row 6)] was run?
**A.** 67%

**Q.** `CN1CC[C@@]23CCCC[C@@H]2[C@@H]1Cc1ccc(Oc2cccc(Br)n2)cc13` [Fumarate (the 3rd table, row 5)] was tested. Which IC50 [1] did it give?
**A.** 1 to 2 µM

**Q.** `CN1CC[C@@]23CCCC[C@@H]2[C@@H]1Cc1ccc(Oc2nccs2)cc13` [Fumarate (the 3rd table, row 10)] was tested. Which IC50 [1] did it give?
**A.** 5 µM

**Q.** With `CN1CC[C@@]23CCCC[C@@H]2[C@@H]1Cc1ccc(Oc2cccnc2)cc13` [Fumarate] as the molecule, how does the IC50 [1] read?
**A.** 6.4 µM

**Q.** With `CN1CC[C@@]23CCCC[C@@H]2[C@@H]1Cc1ccc(Oc2cccs2)cc13` [Fumarate] as the molecule, how does the IC50 [1] read?
**A.** 13 µM

**Q.** `CN1CC[C@@]23CCCC[C@@H]2[C@@H]1Cc1ccc(Oc2ncccc2[N+](=O)[O-])cc13` [Fumarate] was tested. Which IC50 [1] did it give?
**A.** 5 µM

**Q.** With `CN1CC[C@@]23CCCC[C@@H]2[C@@H]1Cc1ccc(Oc2ncccn2)cc13` [Fumarate] as the molecule, how does the IC50 [1] read?
**A.** 4 µM

**Q.** Which IC50 [1] does the source give for `Cc1cccc(Oc2ccc3c(c2)[C@]24CCCC[C@@H]2[C@H](C3)N(C)CC4)n1` [Fumarate] here?
**A.** 0.2 µM

**Q.** `O=[N+]([O-])c1cccnc1Oc1ccc2c(c1)[C@]13CCCC[C@@H]1[C@H](C2)NCC3` [HCl] was tested. Which IC50 [1] did it give?
**A.** 0.5 µM

**Q.** `c1ccc(Oc2ccc3c(c2)[C@]24CCCC[C@@H]2[C@H](C3)NCC4)cc1` [HCl] was tested. Which IC50 [1] did it give?
**A.** 1 µM

**Q.** For `c1ccc(Oc2ccc3c(c2)[C@]24CCCC[C@@H]2[C@H](C3)NCC4)nc1` [Maleate], which IC50 [1] is on record?
**A.** 6 µM

**Q.** For `c1csc(Oc2ccc3c(c2)[C@]24CCCC[C@@H]2[C@H](C3)NCC4)n1` [Maleate], which IC50 [1] is on record?
**A.** 8 µM

**Q.** With `CN1CC[C@@]23CCCC[C@@H]2[C@@H]1Cc1ccc(Oc2ccccc2)cc13` [Oxalate] as the molecule, how does the IC50 [1] read?
**A.** 6 µM

**Q.** How did the “% mice protected” value (NMDA receptor) turn out when `CN1CC[C@@]23CCCC[C@@H]2[C@@H]1Cc1ccc(Oc2ccccn2)cc13` [Oxalate] was run?
**A.** 86%
